Reference: paper PMC6751206, “Epigenetic re-wiring of breast cancer by pharmacological targeting of C-terminal binding protein” (Cell Death & Disease, 2019)

Assays:
CtBP1/CtBP2 heterodimer [1] = biological target: T1, CtBP1/CtBP2 heterodimer (Homo sapiens, UniProt P56545+Q13363); assay: acceptor photobleaching FRET of CtBP1/CtBP2 dimerization in MDA-MB-231 cells; type: cell-based; details: live-cell heterodimerization read-out; dose-response
T1 construct: CFP/YFP fusions of CtBP1 and CtBP2 (pSCFP3A, pSYFP2); heterodimer

CtBP1/CtBP2 heterodimer [2] = biological target: T1, CtBP1/CtBP2 heterodimer; assay: as above; type: cell-based; details: 10 μM compound; live-cell heterodimerization read-out

IC50 (CtBP1/CtBP2 heterodimer [1]) [µM]	SMILES	FRET signal decrease at 10 μM (CtBP1/CtBP2 heterodimer [2])
10 to 20	Nc1nc(C(=O)C(=O)O)cs1 [CI24]	–
–	O=C(O)C(=O)Nc1ccccc1 [CI22]	significant decrease in the paired CtBP1-YFP/CtBP2-CFP FRET signal, after incubation with CI19, CI22, CI23 or CI24
–	CC(C)C(NC(=O)C(=O)O)C(=O)O (stereo not drawn) [CI19]	significant decrease in the paired CtBP1-YFP/CtBP2-CFP FRET signal, after incubation with CI19, CI22, CI23 or CI24
